# Test results published in US20070105792A1, “Administration Of DNA Methylation Inhibitors For Treating Epigenetic Diseases” (priority 2005, published 2007).
# Experiment: Chemical stability of decitabine in reconstituted and diluted aqueous infusion fluid
# Settings: for pH: after preparation of the infusion; for Average degradation rate / Maximum degradation (% peak area): 0.1-1 mg/mL; for Average degradation rate: estimate assuming linearity
# [1] = 0.1 mg/mL, 0.9% NaCl, Experiment 1: 2-8° C. one hour then room temperature, at 0 h
# [2] = 0.1 mg/mL, 0.9% NaCl, Experiment 1: 2-8° C. one hour then room temperature, at 1 h
# [3] = 0.1 mg/mL, 0.9% NaCl, Experiment 1: 2-8° C. one hour then room temperature, at 2 h
# [4] = 0.1 mg/mL, 0.9% NaCl, Experiment 1: 2-8° C. one hour then room temperature, at 3 h
# [5] = 0.1 mg/mL, 0.9% NaCl, Experiment 1: 2-8° C. one hour then room temperature, at 4 h
# [6] = 0.1 mg/mL, 0.9% NaCl, Experiment 2: 2-8° C. ten hours then room temperature, at 0 h
# [7] = 0.1 mg/mL, 0.9% NaCl, Experiment 2: 2-8° C. ten hours then room temperature, at 10 h
# [8] = 0.1 mg/mL, 0.9% NaCl, Experiment 2: 2-8° C. ten hours then room temperature, at 11 h
# [9] = 0.1 mg/mL, 0.9% NaCl, Experiment 2: 2-8° C. ten hours then room temperature, at 12 h
# [10] = 0.1 mg/mL, 5% Dextrose, Experiment 1: 2-8° C. one hour then room temperature, at 0 h
# [11] = 0.1 mg/mL, 5% Dextrose, Experiment 1: 2-8° C. one hour then room temperature, at 1 h
# [12] = 0.1 mg/mL, 5% Dextrose, Experiment 1: 2-8° C. one hour then room temperature, at 2 h
# [13] = 0.1 mg/mL, 5% Dextrose, Experiment 1: 2-8° C. one hour then room temperature, at 3 h
# [14] = 0.1 mg/mL, 5% Dextrose, Experiment 1: 2-8° C. one hour then room temperature, at 4 h
# [15] = 0.1 mg/mL, 5% Dextrose, Experiment 2: 2-8° C. ten hours then room temperature, at 0 h
# [16] = 0.1 mg/mL, 5% Dextrose, Experiment 2: 2-8° C. ten hours then room temperature, at 10 h
# [17] = 0.1 mg/mL, 5% Dextrose, Experiment 2: 2-8° C. ten hours then room temperature, at 11 h
# [18] = 0.1 mg/mL, 5% Dextrose, Experiment 2: 2-8° C. ten hours then room temperature, at 12 h
# [19] = 0.1 mg/mL, Lactated Ringer's, Experiment 1: 2-8° C. one hour then room temperature, at 0 h
# [20] = 0.1 mg/mL, Lactated Ringer's, Experiment 1: 2-8° C. one hour then room temperature, at 1 h
# [21] = 0.1 mg/mL, Lactated Ringer's, Experiment 1: 2-8° C. one hour then room temperature, at 2 h
# [22] = 0.1 mg/mL, Lactated Ringer's, Experiment 1: 2-8° C. one hour then room temperature, at 3 h
# [23] = 0.1 mg/mL, Lactated Ringer's, Experiment 1: 2-8° C. one hour then room temperature, at 4 h
# [24] = 0.1 mg/mL, Lactated Ringer's, Experiment 2: 2-8° C. ten hours then room temperature, at 0 h
# [25] = 0.1 mg/mL, Lactated Ringer's, Experiment 2: 2-8° C. ten hours then room temperature, at 10 h
# [26] = 0.1 mg/mL, Lactated Ringer's, Experiment 2: 2-8° C. ten hours then room temperature, at 11 h
# [27] = 0.1 mg/mL, Lactated Ringer's, Experiment 2: 2-8° C. ten hours then room temperature, at 12 h
# [28] = about 1.0 mg/mL, 0.9% NaCl, Experiment 1: 2-8° C. one hour then room temperature, at 0 h
# [29] = about 1.0 mg/mL, 0.9% NaCl, Experiment 1: 2-8° C. one hour then room temperature, at 1 h
# [30] = about 1.0 mg/mL, 0.9% NaCl, Experiment 1: 2-8° C. one hour then room temperature, at 2 h
# [31] = about 1.0 mg/mL, 0.9% NaCl, Experiment 1: 2-8° C. one hour then room temperature, at 3 h
# [32] = about 1.0 mg/mL, 0.9% NaCl, Experiment 1: 2-8° C. one hour then room temperature, at 4 h
# [33] = about 1.0 mg/mL, 0.9% NaCl, Experiment 2: 2-8° C. ten hours then room temperature, at 0 h
# [34] = about 1.0 mg/mL, 0.9% NaCl, Experiment 2: 2-8° C. ten hours then room temperature, at 10 h
# [35] = about 1.0 mg/mL, 0.9% NaCl, Experiment 2: 2-8° C. ten hours then room temperature, at 11 h
# [36] = about 1.0 mg/mL, 0.9% NaCl, Experiment 2: 2-8° C. ten hours then room temperature, at 12 h
# [37] = about 1.0 mg/mL, 5% Dextrose, Experiment 1: 2-8° C. one hour then room temperature, at 0 h
# [38] = about 1.0 mg/mL, 5% Dextrose, Experiment 1: 2-8° C. one hour then room temperature, at 1 h
# [39] = about 1.0 mg/mL, 5% Dextrose, Experiment 1: 2-8° C. one hour then room temperature, at 2 h
# [40] = about 1.0 mg/mL, 5% Dextrose, Experiment 1: 2-8° C. one hour then room temperature, at 3 h
# [41] = about 1.0 mg/mL, 5% Dextrose, Experiment 1: 2-8° C. one hour then room temperature, at 4 h
# [42] = about 1.0 mg/mL, 5% Dextrose, Experiment 2: 2-8° C. ten hours then room temperature, at 0 h
# [43] = about 1.0 mg/mL, 5% Dextrose, Experiment 2: 2-8° C. ten hours then room temperature, at 10 h
# [44] = about 1.0 mg/mL, 5% Dextrose, Experiment 2: 2-8° C. ten hours then room temperature, at 11 h
# [45] = about 1.0 mg/mL, 5% Dextrose, Experiment 2: 2-8° C. ten hours then room temperature, at 12 h
# [46] = about 1.0 mg/mL, Lactated Ringer's, Experiment 1: 2-8° C. one hour then room temperature, at 0 h
# [47] = about 1.0 mg/mL, Lactated Ringer's, Experiment 1: 2-8° C. one hour then room temperature, at 1 h
# [48] = about 1.0 mg/mL, Lactated Ringer's, Experiment 1: 2-8° C. one hour then room temperature, at 2 h
# [49] = about 1.0 mg/mL, Lactated Ringer's, Experiment 1: 2-8° C. one hour then room temperature, at 3 h
# [50] = about 1.0 mg/mL, Lactated Ringer's, Experiment 1: 2-8° C. one hour then room temperature, at 4 h
# [51] = about 1.0 mg/mL, Lactated Ringer's, Experiment 2: 2-8° C. ten hours then room temperature, at 0 h
# [52] = about 1.0 mg/mL, Lactated Ringer's, Experiment 2: 2-8° C. ten hours then room temperature, at 10 h
# [53] = about 1.0 mg/mL, Lactated Ringer's, Experiment 2: 2-8° C. ten hours then room temperature, at 11 h
# [54] = about 1.0 mg/mL, Lactated Ringer's, Experiment 2: 2-8° C. ten hours then room temperature, at 12 h
smiles,measurement,setting,value
"Nc1ncn([C@H]2C[C@H](O)[C@@H](CO)O2)c(=O)n1 [Decitabine, 5-aza-2′-deoxycytidine]",Decitabine Content (%),[1],97.5%
same,Total Impurities (%),[1],(2.5%)
same,Decitabine Content (%),[2],96.9%
same,Total Impurities (%),[2],(3.2%)
same,Decitabine Content (%),[3],95.7%
same,Total Impurities (%),[3],(4.3%)
same,Decitabine Content (%),[4],94.1%
same,Total Impurities (%),[4],(6.0%)
same,Decitabine Content (%),[5],92.5%
same,Total Impurities (%),[5],(7.7%)
same,Decitabine Content (%),[6],97.8%
same,Total Impurities (%),[6],(2.2%)
same,Decitabine Content (%),[7],93.4%
same,Total Impurities (%),[7],(6.7%)
same,Decitabine Content (%),[8],92.3%
same,Total Impurities (%),[8],(7.7%)
same,Decitabine Content (%),[9],90.8%
same,Total Impurities (%),[9],(9.2%)
same,pH,"0.1 mg/mL, 0.9% NaCl",6.7
same,Decitabine Content (%),[10],97.4%
same,Total Impurities (%),[10],(2.6%)
same,Decitabine Content (%),[11],97.2%
same,Total Impurities (%),[11],(2.7%)
same,Decitabine Content (%),[12],96.4%
same,Total Impurities (%),[12],(3.6%)
same,Decitabine Content (%),[13],94.9%
same,Total Impurities (%),[13],(5.1%)
same,Decitabine Content (%),[14],93.6%
same,Total Impurities (%),[14],(6.4%)
same,Decitabine Content (%),[15],98.2%
same,Total Impurities (%),[15],(1.9%)
same,Decitabine Content (%),[16],94.9%
same,Total Impurities (%),[16],(5.2%)
same,Decitabine Content (%),[17],94.5%
same,Total Impurities (%),[17],(5.6%)
same,Decitabine Content (%),[18],93.3%
same,Total Impurities (%),[18],(6.7%)
same,pH,"0.1 mg/mL, 5% Dextrose",6.9
same,Decitabine Content (%),[19],98.3%
same,Total Impurities (%),[19],(1.7%)
same,Decitabine Content (%),[20],98.1%
same,Total Impurities (%),[20],(1.9%)
same,Decitabine Content (%),[21],97.0%
same,Total Impurities (%),[21],(3.0%)
same,Decitabine Content (%),[22],95.9%
same,Total Impurities (%),[22],(4.1%)
same,Decitabine Content (%),[23],94.9%
same,Total Impurities (%),[23],(5.2%)
same,Decitabine Content (%),[24],98.0%
same,Total Impurities (%),[24],(2.1%)
same,Decitabine Content (%),[25],93.4%
same,Total Impurities (%),[25],(6.7%)
same,Decitabine Content (%),[26],92.6%
same,Total Impurities (%),[26],(7.4%)
same,Decitabine Content (%),[27],91.8%
same,Total Impurities (%),[27],(8.3%)
same,pH,"0.1 mg/mL, Lactated Ringer's",6.7
same,Average degradation rate,@ 4° C.,0.40 %/hr
same,Average degradation rate,@ Room Temperature,2.44 %/hr
same,Maximum degradation (% peak area),S1 (6 hr stored @4° C. + 3 hr @ RT during infusion),9.72 % peak area
same,Maximum degradation (% peak area),S2 (7 hr stored @4° C. + 3 hr @ RT during infusion),10.12 % peak area
same,Maximum degradation (% peak area),S3 (7 hr stored @4° C. + 2 hr @ RT during infusion),7.68 % peak area
same,Maximum degradation (% peak area),S4 (8 hr stored @4° C. + 3 hr @ RT during infusion),10.52 % peak area
same,Maximum degradation (% peak area),S5 (8 hr stored @4° C. + 2 hr @ RT during infusion),8.08 % peak area
same,Maximum degradation (% peak area),S6 (9 hr stored @4° C. + 2 hr @ RT during infusion),8.48 % peak area
same,Maximum degradation (% peak area),S7 (10 hr stored @4° C. + 2 hr @ RT during infusion),8.88 % peak area
same,pH deviation from neutral pH after preparation of the infusion,Table 1 and Table 2 solutions,≤ 0.3 pH units
same,Decitabine Content (%),[28],98.0%
same,Total Impurities (%),[28],(2.1%)
same,Decitabine Content (%),[29],96.8%
same,Total Impurities (%),[29],(3.3%)
same,Decitabine Content (%),[30],94.8%
same,Total Impurities (%),[30],(5.2%)
same,Decitabine Content (%),[31],92.8%
same,Total Impurities (%),[31],(7.3%)
same,Decitabine Content (%),[32],91.1%
same,Total Impurities (%),[32],(9.0%)
same,Decitabine Content (%),[33],97.4%
same,Total Impurities (%),[33],(2.7%)
same,Decitabine Content (%),[34],93.4%
same,Total Impurities (%),[34],(6.7%)
same,Decitabine Content (%),[35],92.5%
same,Total Impurities (%),[35],(7.6%)
same,Decitabine Content (%),[36],90.8%
same,Total Impurities (%),[36],(9.2%)
same,pH,"about 1.0 mg/mL, 0.9% NaCl",6.7
same,Decitabine Content (%),[37],98.0%
same,Total Impurities (%),[37],(2.0%)
same,Decitabine Content (%),[38],97.0%
same,Total Impurities (%),[38],(3.1%)
same,Decitabine Content (%),[39],95.6%
same,Total Impurities (%),[39],(4.4%)
same,Decitabine Content (%),[40],93.7%
same,Total Impurities (%),[40],(6.4%)
same,Decitabine Content (%),[41],91.9%
same,Total Impurities (%),[41],(8.1%)
same,Decitabine Content (%),[42],97.7%
same,Total Impurities (%),[42],(2.4%)
same,Decitabine Content (%),[43],94.5%
same,Total Impurities (%),[43],(5.5%)
same,Decitabine Content (%),[44],93.9%
same,Total Impurities (%),[44],(6.1%)
same,Decitabine Content (%),[45],93.0%
same,Total Impurities (%),[45],(7.1%)
same,pH,"about 1.0 mg/mL, 5% Dextrose",7.1
same,Decitabine Content (%),[46],98.1%
same,Total Impurities (%),[46],(2.0%)
same,Decitabine Content (%),[47],97.3%
same,Total Impurities (%),[47],(2.7%)
same,Decitabine Content (%),[48],96.2%
same,Total Impurities (%),[48],(3.8%)
same,Decitabine Content (%),[49],95.1%
same,Total Impurities (%),[49],(4.9%)
same,Decitabine Content (%),[50],93.7%
same,Total Impurities (%),[50],(6.4%)
same,Decitabine Content (%),[51],98.0%
same,Total Impurities (%),[51],(2.1%)
same,Decitabine Content (%),[52],94.1%
same,Total Impurities (%),[52],(5.9%)
same,Decitabine Content (%),[53],93.3%
same,Total Impurities (%),[53],(6.8%)
same,Decitabine Content (%),[54],91.8%
same,Total Impurities (%),[54],(8.2%)
same,pH,"about 1.0 mg/mL, Lactated Ringer's",6.8
same,Visual inspection of solutions,all reconstituted and diluted solutions,clear and colorless
same,Drug content in the infusion solution during infusion,infusions prepared and stored as instructed,above 90%
